Test results as given in the supplement of paper PMC10307832.

Tests used:
Test in all cases: relative viability (nuclei count vs DMSO), 5 days (fraction); higher = more cells survive
[1] = compound: CC(C)C[C@@H](C(=O)N[C@H](C(=O)OC1CCCC1)c1ccccc1)[C@H](O)C(=O)NO [Tosedostat] + CC(C)C[C@H](NC(=O)[C@H](Cc1ccccc1)NC(=O)c1cnccn1)B(O)O [Bortezomib] (partner 0.002 µM)
Summary of the method: (§1)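 Lung cancer cell lines were seeded in 1536-well plates and dosed by pin tool the next day, with either a single drug or a fixed anchor-drug dose combined with five library-drug doses (not always all listed) spaced in √10 steps. Five days later, one step fixed the cells and stained their nuclei (final 0.05% Triton X-100, 1% formaldehyde, 1 ug/ml Hoechst), and nuclei were counted on 4× images. Relative viability is the nuclei count in treated wells divided by the count in vehicle wells, and each value is the median of duplicate plates.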

[2] = compound: CC(C)C[C@@H](C(=O)N[C@H](C(=O)OC1CCCC1)c1ccccc1)[C@H](O)C(=O)NO [Tosedostat] + CC1(C)CCC(c2ccc(Cl)cc2)=C(CN2CCN(c3ccc(C(=O)NS(=O)(=O)c4ccc(N[C@H](CCN5CCOCC5)CSc5ccccc5)c(S(=O)(=O)C(F)(F)F)c4)cc3)CC2)C1 [Navitoclax] (partner 0.5 µM)
Summary of the method: as §1

[3] = compound: CC(C)C[C@@H](C(=O)N[C@H](C(=O)OC1CCCC1)c1ccccc1)[C@H](O)C(=O)NO [Tosedostat] + Nc1nc2[nH]cc(CCc3ccc(C(=O)N[C@@H](CCC(=O)O)C(=O)O)cc3)c2c(=O)[nH]1 [Pemetrexed] (partner 0.2 µM)
Summary of the method: as §1

[4] = compound: CC1=NN=C(O1)C2=NN=C(C=C2)N3CCC(CC3)OC4=C(C=CC(=C4)F)Cl + N=C(N)NC(=N)NCCc1ccccc1 [Phenformin] (partner 250 µM)
Summary of the method: as §1

Cell Line	relative viability ([1]; first compound 0.02 µM)	relative viability ([1]; first compound 0.06325 µM)	relative viability ([1]; first compound 0.2 µM)	relative viability ([1]; first compound 0.6325 µM)	relative viability ([1]; first compound 2 µM)	relative viability ([2]; first compound 0.02 µM)	relative viability ([2]; first compound 0.06325 µM)	relative viability ([2]; first compound 0.2 µM)	relative viability ([2]; first compound 0.6325 µM)	relative viability ([2]; first compound 2 µM)	relative viability ([3]; first compound 0.02 µM)	relative viability ([3]; first compound 0.06325 µM)	relative viability ([3]; first compound 0.2 µM)	relative viability ([3]; first compound 0.6325 µM)	relative viability ([3]; first compound 2 µM)	relative viability ([4]; first compound 0.253 µM)	relative viability ([4]; first compound 0.8 µM)	relative viability ([4]; first compound 2.53 µM)	relative viability ([4]; first compound 8 µM)
NCI-H838	0.82	0.852	0.646	0.918	1.1	1.23	1.16	1.2	1.33	1.46	0.275	0.254	0.255	0.299	0.29	0.588	0.434	0.515	0.504
NCI-H1355	1.2	1.14	1.09	0.987	1.07	0.766	0.795	1.05	0.979	0.803	1.03	1.05	1.14	0.952	0.916	0.405	0.37	0.446	0.411
NCI-H1437	0.465	0.512	0.488	0.524	0.324	1.13	1.09	1.15	1.09	0.99	0.297	0.353	0.335	0.354	0.391	0.209	0.236	0.288	0.252
NCI-H1650	0.207	0.182	0.228	0.197	0.192	1.25	1.05	1.27	1.01	0.825	0.416	0.392	0.413	0.475	0.526	–	0.403	0.445	0.453
NCI-H1651	0.973	1.03	0.834	0.834	0.914	1.03	0.885	1.28	1.07	1	0.586	0.637	0.555	0.711	0.623	0.367	0.487	0.368	0.325
NCI-H1666	0.753	0.849	0.766	0.735	0.698	0.864	0.946	0.98	1.39	1.05	0.888	0.831	0.88	0.991	0.963	0.509	0.57	0.555	0.584
NCI-H1734	1.07	0.942	0.907	0.89	0.786	0.833	0.801	0.789	0.735	0.683	0.455	0.446	0.428	0.517	0.435	0.429	0.32	0.405	0.395
NCI-H1755	0.963	0.896	0.928	0.887	0.845	1.05	1.05	1.01	0.931	0.958	0.521	0.43	0.362	0.484	0.416	0.567	0.565	0.523	0.56
NCI-H1792	1.01	0.991	0.934	0.952	1	0.63	0.839	0.651	0.652	0.567	0.92	0.884	0.838	0.935	0.658	0.294	0.416	0.264	0.384
NCI-H1915	1.03	0.942	1.01	0.956	0.946	0.801	0.775	0.783	0.743	0.711	0.526	0.538	0.645	0.726	0.781	0.377	0.287	0.332	0.243
NCI-H1975	0.427	0.454	0.36	0.347	0.304	1.06	1.14	1	1.01	0.869	0.313	0.286	0.325	0.271	0.23	–	0.33	0.421	0.387
NCI-H1993	1.02	1.22	0.852	0.872	0.642	0.895	0.877	0.817	0.747	0.603	0.478	0.619	0.716	0.532	0.485	0.553	0.481	0.651	0.509
NCI-H2009	1.3	1.02	0.971	0.926	0.728	1.2	1.12	1.17	1.06	1.07	1.07	0.998	1.07	0.977	1.1	0.456	0.418	0.424	0.378
NCI-H2023	0.961	0.965	0.888	0.649	0.817	1.07	0.989	1.05	0.938	0.923	0.22	0.23	0.292	0.285	0.212	0.401	0.362	0.387	0.324
NCI-H2085	1.22	1.14	1.07	1.03	0.977	1.04	1.06	1.09	1.05	1.08	–	1.02	0.929	0.959	0.714	0.676	–	0.629	0.565
NCI-H2087	0.902	0.795	0.802	0.703	0.688	0.995	0.916	1	0.931	0.805	0.682	0.754	0.709	0.727	0.612	0.425	0.267	0.387	0.341
NCI-H2126	1.13	1.14	1.14	1.08	1.03	0.801	0.876	0.894	0.852	0.721	0.644	0.698	0.708	0.705	0.611	0.486	0.507	0.53	0.528
